Test results from PubChem BioAssay (NCI).
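Test compounds were applied to cells in 96-well plates for 48 hours at 5 doses. Here, GI50 denotes the concentration required for 50% inhibition of growth. Definition used: TGI = concentration required for complete inhibition of growth.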

Tests used:
Assay in all cases: DTP human tumour cell line panel, 48 h
ACHN renal = test system: ACHN renal
CAKI-1 renal = test system: CAKI-1 renal
COLO 205 colon = test system: COLO 205 colon
HCC-2998 colon = test system: HCC-2998 colon
HL-60(TB) leukemia = test system: HL-60(TB) leukemia
MDA-MB-435 = test system: MDA-MB-435
MOLT-4 leukemia = test system: MOLT-4 leukemia
PC-3 prostate = test system: PC-3 prostate
SF-539 CNS = test system: SF-539 CNS
TK-10 renal = test system: TK-10 renal

Row | Structure (SMILES) | GI50 (ACHN renal) [µM] | TGI (ACHN renal) [µM] | GI50 (CAKI-1 renal) [µM] | TGI (CAKI-1 renal) [µM] | GI50 (COLO 205 colon) [µM] | TGI (COLO 205 colon) [µM] | GI50 (HCC-2998 colon) [µM] | TGI (HCC-2998 colon) [µM] | GI50 (HL-60(TB) leukemia) [µM] | TGI (HL-60(TB) leukemia) [µM] | GI50 (MDA-MB-435) [µM] | TGI (MDA-MB-435) [µM] | GI50 (MOLT-4 leukemia) [µM] | TGI (MOLT-4 leukemia) [µM] | GI50 (PC-3 prostate) [µM] | TGI (PC-3 prostate) [µM] | GI50 (SF-539 CNS) [µM] | TGI (SF-539 CNS) [µM] | GI50 (TK-10 renal) [µM] | TGI (TK-10 renal) [µM]
1 | COc1ccc(-c2n[nH]nc2-c2csc3ccccc23)cc1OC | 3.94 | 76 | 3.69 | 34.2 | 2.82 | 11.7 | 4.21 | 19.4 | 1.7 | 25.1 | 0.337 | 3.52 | 3.05 | 27.7 | 3.08 | 35.4 | 1.84 | 5.79 | 2.98 | 19.8
2 | COCCOC(=O)C1=C(C)NC2=C(C(=O)CC(c3ccccc3OC)C2)C1c1cccc(O)c1 (centres undefined) | 19.1 | 71.2 | 4.43 | 31.3 | 8.55 | 24.8 | 12.2 | 27 | 3.2 | 36 | 5.31 | 25.4 | 22 | > 77.6 | 8.15 | > 95.2 | 11.9 | 43.4 | 4.26 | 30.7
3 | CCC(Sc1nnc2c3ccccc3n(CC)c2n1)C(=O)Nc1ccccc1OC (centres undefined) | 83.8 | > 100 | 0.76 | 5.32 | > 100 | > 100 | > 100 | > 100 | 3.02 | 6.91 | > 100 | > 100 | 35 | > 100 | 59.3 | > 100 | > 100 | > 100 | > 100 | > 100
4 | O=C1OC(c2ccc(O)c(-c3ccccc3)c2)(c2ccc(O)c(-c3ccccc3)c2)c2c(Cl)c(Cl)c(Cl)c(Cl)c21 |  | > 100 |  | > 100 |  | > 100 |  | > 100 |  | 12.3 |  | > 100 |  | > 100 |  | > 100 |  | > 100 |  | > 100
5 | O=C(Nc1cc(C(F)(F)F)ccc1F)Nc1n[nH]c2ccccc12 | > 100 | > 100 | > 100 | > 100 | > 100 | > 100 | > 100 | > 100 | > 100 | > 100 | > 100 | > 100 | > 100 | > 100 | > 100 | > 100 | > 100 | > 100 | > 100 | > 100
6 | C=CC1CC12C(=O)C1OC2(C)C2C(=O)c3c(ccc4c3ccc3ccccc34)C(=O)C12 (centres undefined) | 27.5 | 88.1 | 19.1 | 58.6 | 51 | > 100 | 94.6 | > 100 | 31 | > 100 | 41.4 | > 100 | 30.8 | > 100 | 35.6 | > 100 | 47.2 | > 100 | 52.9 | > 100
7 | CCc1c2c(nc3cc4c(cc13)OCO4)-c1cc3c(c(=O)n1C2)COC(=O)[C@@]3(CC)OC(=O)CN | < 0.01 | < 0.01 | < 0.01 |  | 0.133 | 1.13 | < 0.0112 | 0.194 | < 0.01 | < 0.01 | < 0.01 | 1.23 | < 0.01 | < 0.01 | < 0.01 | > 35.5 | < 0.01 | < 0.01 | 0.178 | 20
8 | CCCCCCCCCCCCCCCc1cc(O)ccc1N | > 100 | > 100 | 1.72 | 7.06 | > 9.96 | > 62.5 | > 100 | > 100 | 0.142 | 0.532 | > 100 | > 100 | 0.183 | > 24.8 | 0.463 | 10.6 | 0.702 | 2.19 | > 63 | > 100
9 | O=C1c2ccccc2C(=O)N1c1ccc(S(=O)(=O)Nc2ncccn2)cc1 | > 100 | > 100 | > 100 | > 100 | > 100 | > 100 | 22.7 | > 100 | > 100 | > 100 | > 100 | > 100 | > 100 | > 100 | > 100 | > 100 | > 100 | > 100 | > 100 | > 100
